Laboratory results from US20240368668A1, “SUBSTRATES AND BIOMARKERS OF ADAMTS7” (The Broad Institute, Inc., priority 2021, published 2024).
Square brackets hold non-standard residues; d marks the D form. Ends that are not written are not given here. pGlu = O=C1CC[C@@H](C(=O)O)N1

The substances below were run on mouse ADAMTS7 (assay: TMT10 TAILS N-terminomics, SMC1 experiment (Ad-mADAMTS7 WT vs EQ vs Luc, technical replicates, trypsin digest)). Conditions: TAILS neo-N-terminal peptide abundance; log fold change, Ad-mADAMTS7 WT over EQ.
Type: cell-based
Source text: ADAMTS7 Expression, Cell Culture and Preparation of the Secreted Proteins—Full-length mouse Adamts7 1-1857 (Uniprot Q68SA9, WT or E373Q catalytic mutant) with a carboxyl terminal 3xFLAG tag was used to generate custom adenoviruses as previously described. Adeno-CMV-Luciferase (Ad-Luc) from Vector Biolabs was used as a negative control. Human Coronary Artery Smooth Muscle Cells (HCA-SMC) were obtained from Lonza and expanded in Lonza SmGM-2 media in 15 cm tissue culture plates. Twenty-four hours before media collection, near confluent plates were transduced with 50 MOI adenovirus and switched to Lonza Basal SM media with volumes of 20 ml per 15 cm plate. Expression of the Flag tagged ADAMTS7 was confirmed from the media using western blot and detected using the anti-Flag M2-HRP antibody (Sigma, A8592). Collected media was processed by adding protease inhibitors (1 mM EDTA and 1 mM PMSF) and clarified by 500 g×5 min spin at 4 C to pellet cell debris. Cell media supernatants were then passed through a 0.22 um filter and kept chilled. Processed media was then concentrated 50-100× using 3 kDa Centricon Plus-70 filter unit, spun at 3,500 g×60 min at 4 C. Approximately 10% of the processed, concentrated media was set aside for total secretome proteolytic analysis. The remaining 90% of the processed, concentrated media was buffer exchanged into 50 mM HEPES pH 8.0, 150 mM NaCl (2×50 ml) using the 3 kDa Centricon Plus-70 filter unit and concentrated to >2 mg/ml to serve as input for the TAILS experiment. Secretome and TAILS input samples were stored at −80° C.
For the first experiment, referred to as SMC1, 120 ml of media from 6×15 cm dishes was pooled from each condition (Luc, WT, EQ) and processed to produce three separate inputs for the TAILS experiment. Luc, WT and EQ inputs from the SMC1 experiment were each divided into triplicate 400 ug samples to generate technical replicate TAILS data. For the second experiment, referred to as SMC2, media was processed separately in triplicate for each condition (Luc1, Luc2, Luc3, WT1, WT2, WT3, EQ1, EQ2, EQ3) using 60 ml of media from 3×15 cm dishes for each process replicate. Inputs from the SMC2 experiment used process replicates of 300 ug each to generate TAILS data. The third experiment used input from cultured Human umbilical vein endothelial cells (HUVEC) from Lifeline Cell Technology grown in VascuLife Media and transduced in Lifeline Basal EC (+bFGF2 10 ng/ml). The HUVEC experiment used the same strategy as the SMC2 experiment, with 40 ml of media from 2×15 cm dishes for each process replicate and used 200 ug each to generate TAILS data. Inputs for process replicate experiments were restricted to the lowest concentration from the 9 parallel samples for SMC2 or HUVEC.
TMT10 isotopic labeling and negative selection of non-labeled peptides-Sample preparation was performed based on the TAILS protocol from the Overall lab with some modifications. From a single experiment, nine parallel protein samples in 50 mM HEPES pH 8.0, 150 mM NaCl were separately denatured with guanidinium chloride (Sigma, G4505) to reach a final concentration of 2.5M guanidinium chloride and 250 mM HEPES and incubated at 65° C. for 15 min. Reduction was achieved through addition of tris(2-carboxylethyl) phosphine (TCEP) at a final concentration of […] and incubated at 65° C. for 45 min. Alkylation reaction was performed with addition of iodoacetamide (IAA, Sigma, A3221) to a final concentration of 10 mM IAA for 15 min at room temperature in the dark. Following denaturation, reduction and alkylation steps, ten percent of each of the nine parallel protein samples was removed and combined to serve as a pooled reference. Isobaric tags were added to free amine groups using the TMT10plex Isobaric Mass Tagging Kit (ThermoFisher, 90113) with TMT channels randomly assigned to the nine samples and TMT 131 assigned to the pooled reference. […]
For “FN1_886 (NQESTPVVIQQETTGTPR; listed as Homo sapiens)”, the logFC.mWT.over.mEQ was 1.21.
For “HSPG2_3647 ([pGlu]GKVKAFAHLQVPER; listed as Homo sapiens)”, the logFC.mWT.over.mEQ was 1.22.
For “LTBP2_677 (SLGPGTCTLPLAQR; listed as Homo sapiens)”, the logFC.mWT.over.mEQ was 0.85.
For “FLNA_612 (SVEGPSQAKIECDDKGDGSCDVR; listed as Homo sapiens)”, the logFC.mWT.over.mEQ was 1.69.
Work on “LOX_123 (HWFQAGYSTSR; listed as Homo sapiens)” yielded a logFC.mWT.over.mEQ of 1.82.
With “ADAM9_69 (VIQAEGKEHIIHLER; listed as Homo sapiens)” the logFC.mWT.over.mEQ was 1.55.
In the case of “FN1_45 (VSQSKPGCYDNGKHYQINQQWER; listed as Homo sapiens)”, the logFC.mWT.over.mEQ is reported as 3.20.
With “FN1_1143 (LTPGVEYVYTIQVLR; listed as Homo sapiens)” the logFC.mWT.over.mEQ was 0.86.
“ECM1_134 (FGDQSHPEPESWNAAQHCQQDR; listed as Homo sapiens)” showed a logFC.mWT.over.mEQ of 2.74.
